Publication PMC4727778, “Synthesis and Antifungal Evaluation of Novel N-Alkyl Tetra- and Perhydroquinoline Derivatives” (Scientia Pharmaceutica, 2014)
Converted amounts (≈) assume the structure as drawn. Counter-ions that a name gives are not always drawn.

Experiments:
[1] = system: Yarrowia lipolytica (DSMZ-Nr. 1345); experiment: Agar diffusion assay; assay type: cell-based; settings: Y. lipolytica, GI = growth inhibition, read-out: diameter of zones of total inhibition
Description: (§1) The resulting compounds and known compounds, 1-undecylpiperidine (7) and 1-decylpiperazine (8a), as well as 1-methyl-4-undecylpiperazine (8b) (prepared in the same way), were tested in an agar diffusion assay against Gram-positive (Staphylococcus equorum (DSMZ-Nr. 20675), Streptococcus entericus (DSZM-Nr. 14446)) and Gram-negative bacteria (Escherichia coli (DSMZ-Nr. 426), Pseudomonas marginalis (DSMZ-Nr. 7527)), as well as the fungi Yarrowia lipolytica (DSMZ-Nr. 1345), Candida glabrata (DSMZ-Nr.11226), Aspergillus niger (DSMZ-Nr. 1988), and Hyphopichia burtonii (DSMZ-Nr. 70663) (Table 1).

[2] = system: Aspergillus niger (DSMZ-Nr. 1988); experiment: Agar diffusion assay; assay type: cell-based; settings: A. niger, GI = growth inhibition, read-out: diameter of zones of total inhibition
Description: as §1

[3] = system: Hyphopichia burtonii (DSMZ-Nr. 70663); experiment: Agar diffusion assay; assay type: cell-based; settings: H. burtonii, GI = growth inhibition, read-out: diameter of zones of total inhibition
Description: as §1

[4] = system: Candida glabrata (DSMZ-Nr.11226); experiment: Agar diffusion assay; assay type: cell-based; settings: Nakaseomyces glabratus, C. glabrata, GI = growth inhibition, read-out: diameter of zones of total inhibition
Description: as §1

Candida spp. = system: Candida spp.; set-up: method as in earlier work; settings: printed in the Candida glabrata column; cited from earlier work
Δ8,7-isomerase [5] = target: T1, Δ8,7-isomerase (Saccharomyces cerevisiae, UniProt P32352); experiment: Whole-cell assay for identification of the target enzyme in ergosterol biosynthesis (sterol pattern by GLC-MS); assay type: cell-based; settings: Candida glabrata and Saccharomyces cerevisiae incubated with test compound, lichesterol accumulation indicates Δ8,7-isomerase inhibition
T1 construct: whole-cell assay for identification of the target enzyme in ergosterol biosynthesis; endogenous in cells; host or cells: Saccharomyces cerevisiae and Candida glabrata whole cells
Description: The compounds 5c and 7 were also subjected to our whole-cell assay for identification of the target enzyme in ergosterol biosynthesis. In this assay, the strains Candida glabrata and Saccharomyces cerevisiae were incubated with the test compounds, and after cell lysis, the changes in the sterol pattern were analyzed by GLC-MS. The accumulation of the Δ8(9)-sterol lichesterol (ergosta-5,8,22-trien-3β-ol) clearly indicates an inhibition of the enzyme Δ8,7-isomerase.

Saccharomyces cerevisiae = experiment: Microdilution assay (MIC); assay type: cell-based; settings: hydrochlorides used, arithmetic average of two determinations, read-out: Minimal inhibitory concentration (MIC)
Description: (§2) For comparison, the N-undecylperhydroisoquinoline (C) was also tested here. For solubility reasons, the hydrochlorides were used in this assay (Table 2).

Yarrowia lipolytica = experiment: Microdilution assay (MIC); assay type: cell-based; settings: hydrochlorides used, arithmetic average of two determinations, read-out: Minimal inhibitory concentration (MIC)
Description: as §2

Candida glabrata = experiment: Microdilution assay (MIC); assay type: cell-based; settings: Nakaseomyces glabratus, hydrochlorides used, arithmetic average of two determinations, read-out: Minimal inhibitory concentration (MIC)
Description: as §2

[6] = system: human leukemia cell line (HL 60); experiment: MTT test (cytotoxicity); assay type: cell-based; settings: HL 60 cell line, arithmetic average of three determinations
Description: The cytotoxicity of the compounds 3a–d, 5a–d, and 8b was determined in an MTT test against a human leukemia cell line (HL 60).

Δ8,7-isomerase [7] = system: Δ8,7-isomerase; set-up: method as in PMID 24464607; settings: cited from earlier work
[8] = system: Escherichia coli (DSMZ-Nr. 426); experiment: Agar diffusion assay; assay type: cell-based; settings: E. coli, GI = growth inhibition, read-out: diameter of zones of total inhibition
Description: as §1

[9] = system: Pseudomonas marginalis (DSMZ-Nr. 7527); experiment: Agar diffusion assay; assay type: cell-based; settings: P. marginalis, GI = growth inhibition, read-out: diameter of zones of total inhibition
Description: as §1

[10] = system: Streptococcus entericus (DSZM-Nr. 14446); experiment: Agar diffusion assay; assay type: cell-based; settings: S. entericus, GI = growth inhibition, read-out: diameter of zones of total inhibition
Description: as §1

[11] = system: Staphylococcus equorum (DSMZ-Nr. 20675); experiment: Agar diffusion assay; assay type: cell-based; settings: read-out: diameter of zones of total inhibition
Description: as §1

T1 sequence (P32352 whole entry, stated change not applied): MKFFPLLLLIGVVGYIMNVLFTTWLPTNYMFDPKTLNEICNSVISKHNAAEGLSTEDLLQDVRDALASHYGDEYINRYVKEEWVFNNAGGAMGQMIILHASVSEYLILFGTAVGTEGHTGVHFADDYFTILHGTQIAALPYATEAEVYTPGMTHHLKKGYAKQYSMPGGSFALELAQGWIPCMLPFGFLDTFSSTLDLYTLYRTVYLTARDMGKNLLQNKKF

Row | Compound | zone of inhibition at 50 µg/disc [1] | zone of inhibition at 50 µg/disc [2] | zone of inhibition at 50 µg/disc [3] | zone of inhibition at 50 µg/disc [4] | MIC90 Candida spp. (Candida spp.) | change in sterol pattern / target enzyme in ergosterol biosynthesis (Δ8,7-isomerase [5]) | MIC (Saccharomyces cerevisiae) | MIC (Yarrowia lipolytica) | MIC (Candida glabrata) | further results
1 | Clc1ccccc1C(c1ccccc1)(c1ccccc1)n1ccnc1 [clotrimazole, reference compound] | 15 mm | 15 mm | 25 mm | 13 mm | 1 (MIC90 Candida spp.) [17] µg/mL | – | – | – | – | –
2 | CCCCCCCCCCCN1CCC[C@@H]2CCCC[C@H]21 (racemic) [Compound 5c, (±)-trans-1-Undecyldecahydroquinoline hydrochloride] | – | – | – | – | – | accumulation of lichesterol | 0.25 mg/L | 5 mg/L | 25 mg/L | change in sterol pattern / target enzyme in ergosterol biosynthesis (Δ8,7-isomerase [5]; listed as N-undecylperhydroquinoline): inhibitor of Δ8,7-isomerase; IC50 [6]: 7 µM
3 | OC(Cn1cncn1)(Cn1cncn1)c1ccc(F)cc1F [fluconazole] | – | – | – | – | 32 (MIC90 Candida spp.) [17] µg/mL | – | – | – | – | –
4 | nystatine B | – | – | – | – | 4 (MIC90 Candida spp.) [17] µg/mL | – | – | – | – | –
5 | CCCCCCCCCCCN1CC[C@H]2CCCC[C@@H]2C1 (relative stereo) [C, N-n-undecyl-trans-decahydroisoquinoline, reference compound] | – | – | – | – | – | – | 0.1 mg/L (≈ 0.341 µM) | 1.75 mg/L (≈ 5.96 µM) | 5 mg/L (≈ 17 µM) | antifungal mechanism (enzyme inhibited) (Δ8,7-isomerase [7]): potent antifungal inhibiting the enzyme Δ8,7-isomerase
6 | CCCCCCCCCCCN1CCCCC1 [Compound 7, 1-undecylpiperidine, reference compound] | 22 mm | 0 mm | 12 mm | 8 mm | – | accumulation of lichesterol | 1.75 mg/L (≈ 7.31 µM) | 7.5 mg/L (≈ 31.3 µM) | 12.5 mg/L (≈ 52.2 µM) | zone of inhibition at 50 µg/disc [8]: 7 mm; zone of inhibition at 50 µg/disc [9]: 8 mm; zone of inhibition at 50 µg/disc [10]: 17 mm; zone of inhibition at 50 µg/disc [11]: 13 mm
